Experimental data as given in US6528049B2, “Bisexual attractants, aggregants and arrestants for adults and larvae of codling moth and other species of lepidoptera” (Trece, Inc., priority 1999, dated 2003).

Experiments:
codling moth = experiment: Trap capture with purified (2E,4E) and (2E,4Z) 2,4-decadienoic acid esters; format: in vivo, Cydia pomonella; details: 1 mg dose/gray septum; four orchards; means of 21 trap checks
Description: In this study, test compounds were highly purified synthetic samples. The purities of the compounds are expressed as percentages. Individual traps were baited with 1 mg dose/gray septum; five replicate blocks in four orchards; means of 21 total trap checks.

male codling moth = experiment: Pheromone preference paired-trap test: pheromone alone vs pheromone + HPV; format: in vivo, Cydia pomonella; details: for % Change (Ph+HPV/Phxl00) in Male CM Capture / Impact of HPV Blend on Pheromone Attractancy to Male CM / Male CM Capture with Pheromone + HPV Blend: ♂♂/trap/night ± SEM: Table 9; for Male CM Capture with Pheromone + HPV Blend: ♂♂/trap/night ± SEM / Male CM Captured, HPV + Pheromone Trap: ± SEM / Male CM Captured, HPV + Pheromone Trap ± SEM: 10 mg/red septum; for % of pheromone-alone capture (line under HPV + Pheromone value) / Male CM Captured, HPV + Pheromone Trap: ± SEM / Male CM Captured, HPV + Pheromone Trap ± SEM / Average % Change in ♂♂ CM Capture: Table 8; for Average % Change in ♂♂ CM Capture: average of four orchards
Excerpt: Interaction of synthetic apple and pear odor blends, described above in Table 2, and their effect on the attractancy of synthetic pheromone to codling moth was also studied. For that purpose, series of paired-traps containing pheromone alone or pheromone in combination with synthetic host plant volatile blends were placed in walnut orchards.
Interaction of individual synthetic host plant volatiles or blends on the attractiveness of synthetic male pheromone to male codling moth administered in paired traps with pheromone alone or with pheromone and attractant 10 mg/red septum was also studied.
Pheromone traps (sticky wing traps, Trécé, Inc.,) were hung as pairs: a pheromone only baited-trap vs. a pheromone+HPV blend-baited trap. The two traps of a test pair were attached in close competitive proximity (120 cm apart) on a common hanger bar (PVC pipe). The paired-trap bars were hung 5-6 meters high on the outer canopies of trees. A single pair-trap was hung per tree and different replicate test trees were separated by five rows in a matrix through the orchard. Each pheromone trap was baited with ½ of a commercial pheromone-impregnated rubber septum (Trécé, Inc.). Septa were sectioned by a razor blade. The HPV blends evaporated from their own separate impregnated rubber septa containing 10 mg diluted in hexane/septum).
Tests were conducted in a Harley English walnut orchard. Tests spanned the entire two year seasons April-October with traps checked, males sexed, counted and removed every 2-7 days. Significant effect on pheromone trap capture were judged by paired tests either T-test or a nonparametric test.

## CCCCC/C=C\C=C\C(=O)OCCCCCC [Hexyl (2E,4Z)-2,4-Decadienoate (91. 6%), Hexyl (2E,4Z)-2,4-Decadienoate]
Codling moth
  FEMALE CM Captured: ♂♂/trap/night ± SEM: 0.36 ± 0.18 ♀♀/trap/night
  MALE CM Captured: ♂♂/trap/night ± SEM: 0.21 ± 0.09 ♂♂/trap/night
  Total CM Captured: CM/trap/night ± SEM: 0.57 ± 0.22 CM/trap/night

## CCCCC/C=C\C=C\C(=O)OCCCCCC [Hexyl (2E,4Z)-2,4-Decadienoate (100%), Hexyl (2E,4Z)-2,4-Decadienoate]
Codling moth
  FEMALE CM Captured: ♂♂/trap/night ± SEM: 0.02 ♀♀/trap/night
  MALE CM Captured: ♂♂/trap/night ± SEM: 0.01 ± 0.01 ♂♂/trap/night
  Total CM Captured: CM/trap/night ± SEM: 0.02 ± 0.02 CM/trap/night

## CCCCC/C=C/C=C/C(=O)OC(C)C [Isopropyl (2E,4E)-2,4-Decadienoate]
Codling moth
  FEMALE CM Captured: ♂♂/trap/night ± SEM: 0.09 ± 0.04 ♀♀/trap/night
  MALE CM Captured: ♂♂/trap/night ± SEM: 0.05 ± 0.02 ♂♂/trap/night
  Total CM Captured: CM/trap/night ± SEM: 0.14 ± 0.05 CM/trap/night

## CCCCC/C=C/C=C/C(=O)OC [Methyl (2E,4E)-2,4-Decadienoate]
Codling moth
  FEMALE CM Captured: ♂♂/trap/night ± SEM: 0.04 ± 0.03 ♀♀/trap/night
  MALE CM Captured: ♂♂/trap/night ± SEM: 0.01 ± 0.01 ♂♂/trap/night
  Total CM Captured: CM/trap/night ± SEM: 0.05 ± 0.03 CM/trap/night

## C=CC(=C)CCC=C(C)C [Myrcene]
Male codling moth
  % Change (Ph+HPV/Phxl00) in Male CM Capture: 84%
  Impact of HPV Blend on Pheromone Attractancy to Male CM: No Effect
  Male CM Capture with Pheromone + HPV Blend: ♂♂/trap/night ± SEM: 1.03 ± 0.26 ♂♂/trap/night

## C=C/C(C)=C/C/C=C(\C)CCC=C(C)C [alpha-Farnesene]
Male codling moth
  % Change (Ph+HPV/Phxl00) in Male CM Capture: 86%
  Impact of HPV Blend on Pheromone Attractancy to Male CM: No Effect
  Male CM Capture with Pheromone + HPV Blend: ♂♂/trap/night ± SEM: 1.38 ± 0.39 ♂♂/trap/night

## CC1=CCC(C(C)C)=CC1 [gamma-Terpinene]
Male codling moth
  % Change (Ph+HPV/Phxl00) in Male CM Capture: 93%
  Impact of HPV Blend on Pheromone Attractancy to Male CM: No Effect
  Male CM Capture with Pheromone + HPV Blend: ♂♂/trap/night ± SEM: 0.88 ± 0.28 ♂♂/trap/night

## Cc1ccc(C(C)C)cc1 [para-Cymene]
Male codling moth; Orchard #1
  % of pheromone-alone capture (line under HPV + Pheromone value): 117%
  Male CM Captured, HPV + Pheromone Trap: ± SEM: 0.92 ± 0.20 ♂♂/trap/night
Male codling moth; Orchard #2
  % of pheromone-alone capture (line under HPV + Pheromone value): 102%
  Male CM Captured, HPV + Pheromone Trap ± SEM: 1.39 ± 0.38 ♂♂/trap/night
Male codling moth; Orchard #3
  % of pheromone-alone capture (line under HPV + Pheromone value): 108%
  Male CM Captured, HPV + Pheromone Trap: ± SEM: 4.76 ± 0.82 ♂♂/trap/night
Male codling moth; Orchard #4
  % of pheromone-alone capture (line under HPV + Pheromone value): 136%
  Male CM Captured, HPV + Pheromone Trap: ± SEM: 4.27 ± 0.71 ♂♂/trap/night
Male codling moth
  Average % Change in ♂♂ CM Capture: 116%

## C=C1CCC2CC1C2(C)C (stereo not drawn) [β-Pinene]
Male codling moth; Orchard #1
  % of pheromone-alone capture (line under HPV + Pheromone value): 61%
  Male CM Captured, HPV + Pheromone Trap: ± SEM: 0.75 ± 0.50 ♂♂/trap/night
Male codling moth; Orchard #2
  % of pheromone-alone capture (line under HPV + Pheromone value): 63%
  Male CM Captured, HPV + Pheromone Trap ± SEM: 1.25 ± 0.29 ♂♂/trap/night
Male codling moth; Orchard #3
  % of pheromone-alone capture (line under HPV + Pheromone value): 130%
  Male CM Captured, HPV + Pheromone Trap: ± SEM: 3.37 ± 0.53 ♂♂/trap/night
Male codling moth; Orchard #4
  % of pheromone-alone capture (line under HPV + Pheromone value): 112%
  Male CM Captured, HPV + Pheromone Trap: ± SEM: 4.95 ± 0.76 ♂♂/trap/night
Male codling moth
  Average % Change in ♂♂ CM Capture: 92%
